Marks after values point to notes of the source that are not given here.
Assays:
[1] = system: Adult human kidney proximal tubular (HK-2) cells; conditions: HK-2 cells cultured for 0-20 hr; necrotic form of cell death; cited from earlier work
[2] = system: Ca+2 current (ICa-L); assay: L-type Ca2+ current recording in isolated ventricular myocytes (patch clamp); assay type: cell-based, cat
Experimental: The latter process was performed three times.
Patch-clamp current and voltage recordings were made with the ruptured patch whole-cell configuration at 36-37° C. (14). For studies on L-type Ca^2+ currents, cells were bathed with modified Tyrode's containing (in mM): 157 TEA-Cl, 5 CaCl2, 0.5 MgCl2, and 10 HEPES. Electrode internal solution contained (in mM): 10 L-Glutamic Acid, 20 CsCl, 10 EGTA, 1 MgCl2, 1 CaCl2, 20 HEPES, and 5 ATP-Mg2; pH adjusted with CsOH. In all of the studies, electrode resistance was measured to be 2-3.5 MΩ. The reference zero potential was adjusted in the bath before forming seals. Recordings were performed with an Axon Instruments 200B amplifier (Axon Instruments, Culver City, Calif. USA) interfacing a DigiData 1200 DA/AD acquisition system. Ionic currents were evoked by depolarizing voltage step (1 sec-long) from −30 to +60 mV, in 10-mV increments, from a holding potential of −40 mV delivered at the frequency of 1 Hz. Action potentials were elicited at a frequency of 1 Hz by injection of brief depolarizing current pulses. Software used in data acquisition and analysis was pClamp v.6.04 and Origin v 5.0 (Microcal Software, Northampton, Mass.).

[3] = system: isolated feline ventricular myocytes; conditions: 25 μM, soon after exposure
[4] = system: open chest rats in the absence of myocardial ischemia; assay: Hemodynamic parameters in open chest rats in the absence of myocardial ischemia (first test procedure); assay type: in vivo, rat; conditions: for +dP/dt / Heart Rate / Mean BP / LVPdev: percent change from pre-drug baseline 15 minutes after drug administration
Experimental: Male Sprague-Dawley rats weighing 505±5 g were anesthetized with sodium pentobarbital (50 mg/kg I.P.). An endotracheal tube was secured in place and connected to a small-animal respirator (Harvard Apparatus, Model 683, South Natick, Mass.) set on 100 breaths/min, with a tidal volume of 2-3 mnL/breath. Body temperature was maintained using a heating pad with circulating warm water (K-model 100, Baxter Laboratories). A left thoracotomy was performed, the heart exposed and the pericardium removed. Left ventricular pressure was measured using a saline-filled polyethylene catheter attached to an angiocatheter (20 Gauge) inserted through the apex of the heart and connected to a P23 ID Statham/Gould pressure transducer. Arterial pressure was monitored via a saline-filled polyethylene catheter (PE 50) introduced into the left carotid artery. The right jugular vein was also cannulated with a polyethylene catheter (PE 50) for IV drug infusions and volume repletion (0.9% NaCl). Subcutaneous needles were positioned in the limbs for ECG recordings. […]

[5] = system: open chest rats undergoing myocardial ischemia/reperfusion; assay: Survival of open chest rats undergoing myocardial ischemia/reperfusion (second test procedure); assay type: in vivo, rat; conditions: for percent survival: 3 mg/kg iv
[6] = system: open chest rats undergoing myocardial ischemia/reperfusion; assay: Determination of infarct size (TTC staining); assay type: in vivo, rat; conditions: 3 mg/kg i.v.
Experimental: (§1) In the second test procedure, the main coronary artery of rats undergoing coronary occlusion was located and occluded close to its origin using a 5-0 suture passed underneath the vessel that could be tightened over a short section of PE tubing (PE 20) to initiate regional ischemia. Reperfusion was reinstated by removing the short segment of PE tubing.
The heart was removed and sliced in five to six coronal sections, which were immersed in 1% triphenyltetrazolium chloride (TTC) for 10-15 minutes. The heart sections were removed, blotted dry and traced onto acetate sheets. The areas of infarction were clearly demarcated by a pale appearance in the ischemic zone, and a brick red color of non-infarcted myocardium. The areas of all sections were determined by planimetric methods and infarct area was expressed as a percentage of the left ventricle.

[7] = system: TNF; assay: Serum TNF (ELISA) in open chest rats undergoing myocardial ischemia; assay type: in vivo, rat; conditions: for serum concentration of TNF: mean ± sem
Experimental: Male Sprague-Dawley rats weighing 505±5 g were anesthetized with sodium pentobarbital (50 mg/kg I.P.). An endotracheal tube was secured in place and connected to a small-animal respirator (Harvard Apparatus, Model 683, South Natick, Mass.) set on 100 breaths/min, with a tidal volume of 2-3 mnL/breath. Body temperature was maintained using a heating pad with circulating warm water (K-model 100, Baxter Laboratories). A left thoracotomy was performed, the heart exposed and the pericardium removed. Left ventricular pressure was measured using a saline-filled polyethylene catheter attached to an angiocatheter (20 Gauge) inserted through the apex of the heart and connected to a P23 ID Statham/Gould pressure transducer. Arterial pressure was monitored via a saline-filled polyethylene catheter (PE 50) introduced into the left carotid artery. The right jugular vein was also cannulated with a polyethylene catheter (PE 50) for IV drug infusions and volume repletion (0.9% NaCl). Subcutaneous needles were positioned in the limbs for ECG recordings.
as §1
Blood samples were collected in syringes in the absence of any anticoagulant and immediately placed in Microtainer® serum separator tubes (Becton Dickinson) and centrifuged at 2000 g for 6 minutes. The serum was removed, frozen immediately, and stored at −20° C. until the analysis could be performed. The concentration of serum TNF collected at preselected time points was determined for individual rats by enzyme-linked immunosorbent assay (ELISA), utilizing the Factor-Test-X (Genzyme Inc, Cambridge, Mass., Cat #80-3905-01) according to the manufacturer's instructions. Briefly, 100 μL of serum was diluted 1:2 in 0.1% bovine serum albumin/phosphate buffered saline and added in duplicate to a 96-well microtiter plate. A standard curve was generated by plotting the concentrations of rat TNF standards versus their absorbances. […] The detection limit of this assay was 10 pg/mL. Additionally, the manufacturer has determined that this ELISA is highly specific for rat TNF.

[8] = 1.0 mg/kg iv (second dose, after 0.3 mg/kg iv)
[9] = following infusion (0.1+0.3 mg/kg)
[10] = 0.1 mg/kg iv (first dose), mean ± sem
[11] = 0.3 mg/kg iv (second dose, after 0.1 mg/kg iv)

In the case of `CCCCCCCCCCCCC/C=C/[C@@H](O)[C@@H](N)CO` [Sphingosine], the “concentration inducing rapid, concentration-dependent cytotoxicity” value [1] is listed as ≥ 10 µM, the “block of ICa-L” value ([2]; 2.5 μM) is listed as 17±7% and the “block of ICa-L” value ([2]; 25 μM) is listed as 75±4%. The “myocardial cell death (morphology, lack of viability)” value [3] was “lead to myocardial cell death”, the “+dP/dt” value ([4]; 0.3 mg/kg iv (first dose)) was −33 ± 12% and the “Heart Rate” value ([4]; 0.3 mg/kg iv (first dose)) was −4 ± 4%. For the same compound, the “Mean BP” value ([4]; 0.3 mg/kg iv (first dose)) was −24 ± 12%, the “+dP/dt” value [4, 8] was −32 ± 18% and the “Heart Rate” value [4, 8] was −18 ± 1%. For the same compound, the LVPdev [4, 8] was −24 ± 14%, the “Mean BP” value [4, 8] was −17 ± 19% and the “+dP/dt reduced from baseline” value [4, 9] was 33±12%. The “LVP depressed from baseline” value [4, 9] was 24±8%.

In the case of Etanercept, the “mortality resulting from myocardial ischemia/reperfusion” value ([5]; 3 mg/kg i.v. administered immediately before occlusion) is reported as “significantly reduced mortality”, the rats dead ([5]; 3 mg/kg i.v., t=90 minutes of reperfusion) is reported as 1 out of 9 and the percent survival ([5]; 0 min (end of ischemia)) is reported as 100%. For the same compound, the percent survival ([5]; 30 min reperfusion) was 100%, the percent survival ([5]; 60 min reperfusion) was 100% and the percent survival ([5]; 90 min reperfusion) was 89%. The percent survival ([5]; 120 min reperfusion) was 89* percent, the percent survival ([5]; 150 min reperfusion) was 88* percent and the percent survival ([5]; −30 min (baseline)) was 100%. The “Infarct size, expressed as a percentage of the left ventricle” value [6] was 24±3%, the “serum concentration of TNF” value ([7]; 0 min (end of ischemia)) was 2299 ± 357 pg/mL and the “serum concentration of TNF” value ([7]; 30 min reperfusion) was 2057 ± 349 pg/mL. The “serum concentration of TNF” value ([7]; 60 min reperfusion) was 1592 ± 258 pg/mL, the “serum concentration of TNF” value ([7]; 90 min reperfusion) was 1108 ± 279 pg/mL and the “serum concentration of TNF” value ([7]; 120 min reperfusion) was 721 ± 209 pg/mL. For the same compound, the “serum concentration of TNF” value ([7]; 150 min reperfusion) was 580 ± 193 pg/mL, the “effect on TNFα spike in concentration in response to vascular occlusion” value ([7]; at 0 minutes) was “significantly reduced” and the “serum concentration of TNF” value ([7]; −30 min (baseline)) was 0 ± 0 pg/mL.

For Sphingomyelin, the “+dP/dt” value [4, 10] was 1 ± 13%, the “Heart Rate” value [4, 10] was 7 ± 9% and the LVPdev [4, 10] was 3 ± 11%. The “Mean BP” value [4, 10] was −3 ± 17%, the “+dP/dt” value [4, 11] was 6 ± 15% and the “Heart Rate” value [4, 11] was 8 ± 10%. For the same compound, the LVPdev [4, 11] was 4 ± 12% and the “Mean BP” value [4, 11] was 2 ± 2%.

Source: patent US20020150582A1, “Method of treating or inhibiting cellular injury or cell death” (priority 2001, published 2002)
